Assay results as given in paper PMC2632775 (Nuclear medicine and biology, 2008).
Read-outs that look alike come from different tables or passages of the source.

Columns and labels:
[1] = target: T1, VMAT2 binding sites in the pancreas (Rattus norvegicus, UniProt Q01827); assay: Blocking studies of pancreatic uptake in rats; format: in vivo; settings: for Pancreas uptake, Pretreatment / Blood uptake, Pretreatment: n=5, ± SD
[2] = rats, avg ± SD, cited from earlier work
[3] = target: T1, VMAT2 binding sites in the pancreas; settings: rats, 60 min after tracer injection, ± SD, cited from earlier work
[4] = rats, iv
[5] = target: VMAT2 binding sites of beta cells in the pancreas (Rattus norvegicus, UniProt Q01827); settings: rats, PET, post iv injection
VMAT2 binding sites of beta cells in the pancreas, sequence (Q01827 whole entry): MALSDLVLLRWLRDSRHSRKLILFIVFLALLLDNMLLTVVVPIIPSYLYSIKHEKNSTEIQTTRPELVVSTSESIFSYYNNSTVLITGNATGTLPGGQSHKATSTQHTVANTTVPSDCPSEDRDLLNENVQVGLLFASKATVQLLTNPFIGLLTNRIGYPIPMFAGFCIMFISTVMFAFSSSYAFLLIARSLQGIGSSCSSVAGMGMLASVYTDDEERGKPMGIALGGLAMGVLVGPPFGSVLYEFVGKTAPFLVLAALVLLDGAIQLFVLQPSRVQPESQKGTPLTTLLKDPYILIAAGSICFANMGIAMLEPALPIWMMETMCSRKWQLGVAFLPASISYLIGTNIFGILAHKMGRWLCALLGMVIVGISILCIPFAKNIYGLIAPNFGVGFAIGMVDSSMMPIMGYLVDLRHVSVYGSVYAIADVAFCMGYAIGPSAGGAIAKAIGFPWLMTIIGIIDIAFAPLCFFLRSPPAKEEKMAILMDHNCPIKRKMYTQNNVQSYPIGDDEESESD

VMAT2 = VMAT2 (Rattus norvegicus, UniProt Q01827); assay: In vitro autoradiography using rat brain sections; format: binding; settings: preliminary, data not shown
VMAT2, sequence (Q01827 whole entry): as above

[6] = 60 min after tracer injection, no pretreatment, n=4, ± SD
[7] = 60 min after tracer injection, pretreatment of (+)2 3.5 mg/kg iv 5 min prior
[8] = pretreatment of (+)2 3.5 mg/kg iv 5 min prior
[9] = 30 min after tracer injection, no pretreatment, n=4, ± SD
[10] = 30 min after tracer injection, pretreatment of (+)DTBZ 3.3 mg/kg iv 5 min prior

T1 sequence (Q01827 whole entry): as above

## COc1cc2c(cc1OCCC[18F])CCN1CC(CC(C)C)C(O)CC21 (stereo not drawn) [[^18F](+)2, [^18F](−)-2-Hydroyxl-3-isobutyl-9-(3-fluoropropoxy)-10-methoxy-2,3,4,6,7, 11b-hexahydro-1H-pyrido[2,1-a]isoquinoline]
[1]; [6]
  Pancreas uptake, Control: 2.19 %ID/g
[1]; [7]
  Pancreas uptake, Pretreatment: 0.32 %ID/g
[2]; 2 min
  Blood uptake: 0.26 ± 0.03 %ID/g
  Brain uptake: 0.71 ± 0.05 %ID/g
  Heart uptake: 0.71 ± 0.07 %ID/g
  Kidney uptake: 2.10 ± 0.17 %ID/g
  Liver uptake: 3.53 ± 0.56 %ID/g
  Lung uptake: 0.94 ± 0.04 %ID/g
  Muscle uptake: 0.14 ± 0.03 %ID/g
  Pancreas uptake: 2.51 ± 0.22 %ID/g
  Skin uptake: 0.23 ± 0.05 %ID/g
  Spleen uptake: 1.46 ± 0.15 %ID/g
[2]; 30 min
  Blood uptake: 0.23 ± 0.06 %ID/g
  Brain uptake: 0.62 ± 0.08 %ID/g
  Heart uptake: 0.41 ± 0.03 %ID/g
  Kidney uptake: 1.06 ± 0.06 %ID/g
  Liver uptake: 2.82 ± 0.24 %ID/g
  Lung uptake: 0.69 ± 0.03 %ID/g
  Muscle uptake: 0.17 ± 0.02 %ID/g
  Pancreas uptake: 5.50 ± 0.97 %ID/g
  Skin uptake: 0.28 ± 0.01 %ID/g
  Spleen uptake: 1.03 ± 0.18 %ID/g
[2]; 60 min
  Blood uptake: 0.18 ± 0.02 %ID/g
  Brain uptake: 0.42 ± 0.04 %ID/g
  Heart uptake: 0.30 ± 0.10 %ID/g
  Kidney uptake: 0.84 ± 0.09 %ID/g
  Liver uptake: 2.47 ± 0.30 %ID/g
  Lung uptake: 0.54 ± 0.14 %ID/g
  Muscle uptake: 0.13 ± 0.01 %ID/g
  Pancreas uptake: 4.98 ± 0.24 %ID/g
  Skin uptake: 0.23 ± 0.04 %ID/g
  Spleen uptake: 0.83 ± 0.18 %ID/g
[2]; 120 min
  Blood uptake: 0.12 ± 0.03 %ID/g
  Brain uptake: 0.35 ± 0.02 %ID/g
  Heart uptake: 0.22 ± 0.01 %ID/g
  Kidney uptake: 0.55 ± 0.06 %ID/g
  Liver uptake: 1.47 ± 0.13 %ID/g
  Lung uptake: 0.35 ± 0.03 %ID/g
  Muscle uptake: 0.10 ± 0.01 %ID/g
  Pancreas uptake: 2.76 ± 0.61 %ID/g
  Skin uptake: 0.16 ± 0.02 %ID/g
  Spleen uptake: 0.48 ± 0.04 %ID/g
[3]; no pretreatment
  Blood uptake, Control: 0.20 ± 0.02 %ID/g
  Pancreas uptake, Control: 4.93 ± 0.49 %ID/g
[3]; [8]
  Blood uptake, Pretreatment: 0.26 ± 0.04 %ID/g
  Pancreas uptake, Pretreatment: 1.11 ± 0.07 %ID/g

## COc1cc2c(cc1OCCC[18F])CCN1CC(CC(C)C)C(C3CO3)CC21 (stereo not drawn) [[^18F](+)4] [[^18F](+)-2-Oxiranyl-3-isobutyl-9-(3-fluoropropoxy)-10-methoxy-2,3,4,6,7, 11b-hexahydro-1H-pyrido[2,1-a]isoquinoline]
[1]; [6]
  Pancreas uptake, Control: 2.19 ± 0.37 %ID/g
[1]; [7]
  Blood uptake, Pretreatment: 0.06 ± 0.01 %ID/g
  Pancreas uptake, Pretreatment: 0.32 ± 0.07 %ID/g
[4]; 2 min, n=3
  Blood uptake: 0.27 %ID/g
  Bone uptake: 0.29 %ID/g
  Brain uptake: 0.95 %ID/g
  Heart uptake: 0.48 %ID/g
  Kidney uptake: 4.60 %ID/g
  Liver uptake: 3.28 %ID/g
  Lung uptake: 0.79 %ID/g
  Muscle uptake: 1.00 %ID/g
  Pancreas uptake: 1.64 %ID/g
  Skin uptake: 0.21 %ID/g
  Spleen uptake: 1.36 %ID/g
[4]; 30 min, n=3
  Blood uptake: 0.15 %ID/g
  Brain uptake: 0.30 %ID/g
  Heart uptake: 0.11 %ID/g
  Kidney uptake: 3.59 %ID/g
  Liver uptake: 1.02 %ID/g
  Lung uptake: 0.48 %ID/g
  Pancreas uptake: 1.96 %ID/g
  Skin uptake: 0.14 %ID/g
  Spleen uptake: 0.26 %ID/g
[4]; 60 min, n=7
  Blood uptake: 0.10 %ID/g
  Bone uptake: 0.23 %ID/g
  Brain uptake: 0.32 %ID/g
  Heart uptake: 0.07 %ID/g
  Kidney uptake: 2.21 %ID/g
  Liver uptake: 0.67 %ID/g
  Lung uptake: 0.14 %ID/g
  Muscle uptake: 0.04 %ID/g
  Pancreas uptake: 2.68 %ID/g
  Skin uptake: 0.09 %ID/g
  Spleen uptake: 0.16 %ID/g
[4]; 120 min, n=7
  Blood uptake: 0.04 %ID/g
  Bone uptake: 0.22 %ID/g
  Brain uptake: 0.24 %ID/g
  Heart uptake: 0.02 %ID/g
  Kidney uptake: 1.58 %ID/g
  Liver uptake: 0.54 %ID/g
  Lung uptake: 0.05 %ID/g
  Muscle uptake: 0.02 %ID/g
  Pancreas uptake: 1.33 %ID/g
  Skin uptake: 0.04 %ID/g
  Spleen uptake: 0.08 %ID/g
[4]; 240 min, n=4
  Blood uptake: 0.02 %ID/g
  Bone uptake: 0.27 %ID/g
  Brain uptake: 0.28 %ID/g
  Heart uptake: 0.01 %ID/g
  Kidney uptake: 2.01 %ID/g
  Liver uptake: 0.54 %ID/g
  Lung uptake: 0.03 %ID/g
  Muscle uptake: 0.01 %ID/g
  Pancreas uptake: 0.81 %ID/g
  Skin uptake: 0.02 %ID/g
  Spleen uptake: 0.04 %ID/g
[5]
  Time of peak uptake and retention in the pancreas: around 60 min
[3]; [8]
  Pancreas uptake, Pretreatment: 1.11 %ID/g

## COc1cc2c(cc1OCCC[18F])CCN1CC(CC(C)C)C(C3CO3)CC21 (stereo not drawn) [[^18F](−)4] [[^18F](−)-2-Oxiranyl-3-isobutyl-9-(3-fluoropropoxy)-10-methoxy-2,3,4,6,7, 11b-hexahydro-1H-pyrido[2,1-a]isoquinoline]
[1]; 30 min, iv pretreatment of (+)DTBZ 3.3 mg/kg 5 min prior
  Displaceability of pancreas uptake: non-displaceable
[1]; [9]
  Blood uptake, Control: 0.07 ± 0.00 %ID/g
  Pancreas uptake, Control: 0.22 ± 0.02 %ID/g
[1]; [10]
  Blood uptake, Pretreatment: 0.12 ± 0.03 %ID/g
  Pancreas uptake, Pretreatment: 0.22 ± 0.04 %ID/g
VMAT2
  Labeling of rat brain sections (in vitro autoradiography): no specific binding in any brain region
